Results published in patent EP4104902B1, “COMPOUNDS AND M[…] SAME” (priority 2020, dated 2021).

What follows are molecules tested on recombinant rabies virus 1088 strain expressing Gaussia Luciferase (GLuc) (1088/GLuc). Conditions: read-out: Anti-rabies activity.
Format: cell-based
`CC(C)CC[C@@H]1[C@@H]2CN[C@@]3(C(=O)NCCCNC(=N)N)[C@@H](C2)CN(Cc2ccc(F)cc2)[C@@H]13` (relative stereo) [IB-369] gave an IC50 of 10 to 30 µM. For `CC(C)CC[C@@H]1[C@@H]2CN[C@@]3(C(=O)NCC(C)C)[C@@H](C2)CN(CCO)[C@@H]13` (relative stereo) [IB-372], the IC50 was 10 to 30 µM. `CC(C)CC[C@@H]1[C@@H]2CN[C@@]3(C(=O)NCC(C)C)[C@@H](C2)CN(CC(C)C)[C@@H]13` (relative stereo) [IB-378] was tested, and the IC50 was less than 5 µM. With `CC(C)CCN1C[C@@H]2C[C@H]3CN[C@]2(C(=O)NCCC(=O)O)[C@@H]1[C@@H]3Cc1cccc2ccccc12` (relative stereo) [IB-381] the IC50 was 10 to 30 µM. In the case of `CC(C)CNC(=O)[C@]12NC[C@@H]3C[C@H]1CN(CCC(=O)O)[C@H]2[C@@H]3CCc1ccccc1` (relative stereo) [IB-430], the IC50 is reported as less than 5 µM. `CC(C)CNC(=O)[C@]12NC[C@@H]3C[C@H]1CN(CCC(=O)O)[C@H]2[C@@H]3CO` (relative stereo) [IB-431] gave an IC50 of 10 to 30 µM. `CC(C)C[C@@H]1[C@@H]2CN[C@@]3(C(=O)NCc4ccc(O)cc4)[C@@H](C2)CN(CCc2ccccc2)[C@@H]13` (relative stereo) [IB-449] was tested, and the IC50 was 10 to 30 µM. `CC(C)C[C@@H]1[C@@H]2CN[C@@]3(C(=O)NCc4ccc(O)cc4)[C@@H](C2)CN(Cc2ccc(F)cc2)[C@@H]13` (relative stereo) [IB-458] gave an IC50 of 10 to 30 µM. In the case of `O=C(NCCO)[C@]12NC[C@@H]3C[C@H]1CN(Cc1cccc4ccccc14)[C@H]2[C@@H]3Cc1ccc(O)cc1` (relative stereo) [IB-459], the IC50 is reported as 10 to 30 µM. Molecule `CC(C)CC[C@@H]1[C@@H]2CN[C@@]3(C(=O)NCCO)[C@@H](C2)CN(CCc2ccccc2)[C@@H]13` (relative stereo) [IB-461] has an IC50 of 10 to 30 µM. For `CC(C)C[C@@H]1[C@@H]2CN[C@@]3(C(=O)NCc4ccc(O)cc4)[C@@H](C2)CN(Cc2ccccc2)[C@@H]13` (relative stereo) [IB-464], the IC50 was less than 5 µM. `CC(C)CC[C@@H]1[C@@H]2CN[C@@]3(C(=O)NCc4ccc(O)cc4)[C@@H](C2)CN(CC(C)C)[C@@H]13` (relative stereo) [IB-465] gave an IC50 of 10 to 30 µM. With `O=C(NCc1ccc(O)cc1)[C@]12NC[C@@H]3C[C@H]1CN(CCO)[C@H]2[C@@H]3Cc1cccc2ccccc12` (relative stereo) [IB-470] the IC50 was 10 to 30 µM. For `NC(=O)CCNC(=O)[C@]12NC[C@@H]3C[C@H]1CN(CC1CCCCC1)[C@H]2[C@@H]3Cc1cccc2ccccc12` (relative stereo) [IB-522], the IC50 was 10 to 30 µM. `NC(=O)CCNC(=O)[C@]12NC[C@@H]3C[C@H]1CN(Cc1ccc(F)cc1)[C@H]2[C@@H]3Cc1cccc2ccccc12` (relative stereo) [IB-525] showed an IC50 of 10 to 30 µM. With `O=C(NCc1cccc2ccccc12)[C@]12NC[C@@H]3C[C@H]1CN(CCO)[C@H]2[C@@H]3Cc1ccc(O)cc1` (relative stereo) [IB-527] the IC50 was 10 to 30 µM. Molecule `CC(C)CC[C@@H]1[C@@H]2CN[C@@]3(C(=O)NCCc4ccccc4)[C@@H](C2)CN(CCO)[C@@H]13` (relative stereo) [IB-531] has an IC50 of 10 to 30 µM. Work on `NC(=O)CCNC(=O)[C@]12NC[C@@H]3C[C@H]1CN(Cc1ccccc1)[C@H]2[C@@H]3CCc1ccccc1` (relative stereo) [IB-535] yielded an IC50 of 10 to 30 µM. Molecule `CC(C)CN1C[C@@H]2C[C@H]3CN[C@]2(C(=O)NCCc2ccccc2)[C@@H]1[C@@H]3Cc1ccc(O)cc1` (relative stereo) [IB-536] has an IC50 of 10 to 30 µM. `CC(C)CN1C[C@@H]2C[C@H]3CN[C@]2(C(=O)NCCC(N)=O)[C@@H]1[C@@H]3CCc1ccccc1` (relative stereo) [IB-539] gave an IC50 of 10 to 30 µM. With `CC(C)C[C@@H]1[C@@H]2CN[C@@]3(C(=O)NCCc4ccccc4)[C@@H](C2)CN(Cc2ccc(O)cc2)[C@@H]13` (relative stereo) [IB-540] the IC50 was 10 to 30 µM. In the case of `CC(C)C[C@@H]1[C@@H]2CN[C@@]3(C(=O)NCc4cccc5ccccc45)[C@@H](C2)CN(Cc2ccc(O)cc2)[C@@H]13` (relative stereo) [IB-541], the IC50 is reported as less than 5 µM. `CC(C)CC[C@@H]1[C@@H]2CN[C@@]3(C(=O)NCCc4ccccc4)[C@@H](C2)CN(Cc2ccc(O)cc2)[C@@H]13` (relative stereo) [IB-544] gave an IC50 of 10 to 30 µM. With `O=C(NCc1ccc(F)cc1)[C@]12NC[C@@H]3C[C@H]1CN(CCO)[C@H]2[C@@H]3Cc1ccc(O)cc1` (relative stereo) [IB-549] the IC50 was 10 to 30 µM. Work on `CCCCCCNC(=O)[C@]12NC[C@@H]3C[C@H]1CN(CCC(C)C)[C@H]2[C@@H]3CC(C)C` (relative stereo) [IB-551] yielded an IC50 of less than 5 µM. `CC(C)CCN1C[C@@H]2C[C@H]3CN[C@]2(C(=O)NCc2ccc(F)cc2)[C@@H]1[C@@H]3CC(C)C` (relative stereo) [IB-553] was tested, and the IC50 was less than 5 µM. For `CCCCCCNC(=O)[C@]12NC[C@@H]3C[C@H]1CN(Cc1ccccc1)[C@H]2[C@@H]3Cc1ccccc1` (relative stereo) [IB-562], the IC50 was 10 to 30 µM. In the case of `O=C(NCc1ccc(F)cc1)[C@]12NC[C@@H]3C[C@H]1CN(Cc1ccccc1)[C@H]2[C@@H]3CCc1ccccc1` (relative stereo) [IB-568], the IC50 is reported as 10 to 30 µM. In the case of `CC(C)CCNC(=O)[C@]12NC[C@@H]3C[C@H]1CN(Cc1ccc(O)cc1)[C@H]2[C@@H]3Cc1ccccc1` (relative stereo) [IB-574], the IC50 is reported as 10 to 30 µM. With `CC(C)CNC(=O)[C@]12NC[C@@H]3C[C@H]1CN(CCC(=O)O)[C@H]2[C@@H]3Cc1cccc2ccccc12` (relative stereo) [IB-575] the IC50 was 10 to 30 µM. `CC(C)CCN1C[C@@H]2C[C@H]3CN[C@]2(C(=O)NCc2ccc(O)cc2)[C@@H]1[C@@H]3CCc1ccccc1` (relative stereo) [IB-576] gave an IC50 of 10 to 30 µM. For `CC(C)CCN1C[C@@H]2C[C@H]3CN[C@]2(C(=O)NCc2ccc(O)cc2)[C@@H]1[C@@H]3Cc1ccccc1` (relative stereo) [IB-577], the IC50 was 10 to 30 µM. `CC(C)C[C@@H]1[C@@H]2CN[C@@]3(C(=O)NCc4ccc(O)cc4)[C@@H](C2)CN(CC2CCCCC2)[C@@H]13` (relative stereo) [IB-581] gave an IC50 of 10 to 30 µM. With `CC(C)CC[C@@H]1[C@@H]2CN[C@@]3(C(=O)NCc4ccc(O)cc4)[C@@H](C2)CN(Cc2ccc(F)cc2)[C@@H]13` (relative stereo) [IB-582] the IC50 was 10 to 30 µM. `O=C(NCc1ccc(O)cc1)[C@]12NC[C@@H]3C[C@H]1CN(Cc1ccc(F)cc1)[C@H]2[C@@H]3Cc1ccccc1` (relative stereo) [IB-583] gave an IC50 of 10 to 30 µM. `CC(C)C[C@@H]1[C@@H]2CN[C@@]3(C(=O)NCc4cccc5ccccc45)[C@@H](C2)CN(CCO)[C@@H]13` (relative stereo) [IB-585] gave an IC50 of 10 to 30 µM. `O=C(NCCO)[C@]12NC[C@@H]3C[C@H]1CN(Cc1cccc4ccccc14)[C@H]2[C@@H]3Cc1ccccc1` (relative stereo) [IB-588] was tested, and the IC50 was less than 5 µM. `O=C(NCCO)[C@]12NC[C@@H]3C[C@H]1CN(CCc1ccccc1)[C@H]2[C@@H]3Cc1cccc2ccccc12` (relative stereo) [IB-593] gave an IC50 of 10 to 30 µM. With `O=C(NCCO)[C@]12NC[C@@H]3C[C@H]1CN(Cc1ccccc1)[C@H]2[C@@H]3Cc1cccc2ccccc12` (relative stereo) [IB-602] the IC50 was 10 to 30 µM. In the case of `O=C(O)CCNC(=O)[C@]12NC[C@@H]3C[C@H]1CN(CCO)[C@H]2[C@@H]3Cc1cccc2ccccc12` (relative stereo) [IB-610], the IC50 is reported as 10 to 30 µM. In the case of `CC(C)CCN1C[C@@H]2C[C@H]3CN[C@]2(C(=O)NCCC(=O)O)[C@@H]1[C@@H]3CC(C)C` (relative stereo) [IB-611], the IC50 is reported as 10 to 30 µM. `CC(C)CC[C@@H]1[C@@H]2CN[C@@]3(C(=O)NCCC(=O)O)[C@@H](C2)CN(CC2CCCCC2)[C@@H]13` (relative stereo) [IB-613] was tested, and the IC50 was 10 to 30 µM. With `O=C(O)CCNC(=O)[C@]12NC[C@@H]3C[C@H]1CN(CC1CCCCC1)[C@H]2[C@@H]3Cc1cccc2ccccc12` (relative stereo) [IB-614] the IC50 was 10 to 30 µM. For `O=C(O)CCNC(=O)[C@]12NC[C@@H]3C[C@H]1CN(Cc1ccccc1)[C@H]2[C@@H]3Cc1cccc2ccccc12` (relative stereo) [IB-616], the IC50 was 10 to 30 µM. `O=C(NCc1ccccc1)[C@]12NC[C@@H]3C[C@H]1CN(CCO)[C@H]2[C@@H]3CCc1ccccc1` (relative stereo) [IB-618] showed an IC50 of less than 5 µM. For `O=C(NCc1ccccc1)[C@]12NC[C@@H]3C[C@H]1CN(CCO)[C@H]2[C@@H]3Cc1ccccc1` (relative stereo) [IB-619], the IC50 was 10 to 30 µM. Work on `CC(C)CNC(=O)[C@]12NC[C@@H]3C[C@H]1CN(CCO)[C@H]2[C@@H]3Cc1cccc2ccccc12` (relative stereo) [IB-621] yielded an IC50 of less than 5 µM. In the case of `CC(C)CNC(=O)[C@]12NC[C@@H]3C[C@H]1CN(CCc1ccccc1)[C@H]2[C@@H]3Cc1ccc(O)cc1` (relative stereo) [IB-625], the IC50 is reported as 10 to 30 µM. With `CC(C)CNC(=O)[C@]12NC[C@@H]3C[C@H]1CN(Cc1ccc(F)cc1)[C@H]2[C@@H]3CC(C)C` (relative stereo) [IB-630] the IC50 was less than 5 µM. With `CC(C)CNC(=O)[C@]12NC[C@@H]3C[C@H]1CN(Cc1ccc(F)cc1)[C@H]2[C@@H]3Cc1ccc(O)cc1` (relative stereo) [IB-631] the IC50 was 10 to 30 µM. Molecule `CC(C)CNC(=O)[C@]12NC[C@@H]3C[C@H]1CN(CC(C)C)[C@H]2[C@@H]3CCc1ccccc1` (relative stereo) [IB-633] has an IC50 of less than 5 µM. Work on `CC(C)CCN1C[C@@H]2C[C@H]3CN[C@]2(C(=O)NCCC(N)=O)[C@@H]1[C@@H]3CCc1ccccc1` (relative stereo) [IB-636] yielded an IC50 of 10 to 30 µM. `NC(=O)CCNC(=O)[C@]12NC[C@@H]3C[C@H]1CN(CC1CCCCC1)[C@H]2[C@@H]3Cc1ccccc1` (relative stereo) [IB-637] gave an IC50 of less than 5 µM. For `O=C(NCCO)[C@]12NC[C@@H]3C[C@H]1CN(CCc1ccccc1)[C@H]2[C@@H]3Cc1ccccc1` (relative stereo) [IB-640], the IC50 was less than 5 µM. `CC(C)C[C@@H]1[C@@H]2CN[C@@]3(C(=O)NCCO)[C@@H](C2)CN(CCc2ccccc2)[C@@H]13` (relative stereo) [IB-641] was tested, and the IC50 was 10 to 30 µM. `O=C(NCc1ccc(F)cc1)[C@]12NC[C@@H]3C[C@H]1CN(CCc1ccccc1)[C@H]2[C@@H]3Cc1ccc(O)cc1` (relative stereo) [IB-642] was tested, and the IC50 was less than 5 µM. Molecule `CC(C)C[C@@H]1[C@@H]2CN[C@@]3(C(=O)NCCO)[C@@H](C2)CN(Cc2cccc4ccccc24)[C@@H]13` (relative stereo) [IB-643] has an IC50 of 10 to 30 µM. `CC(C)C[C@@H]1[C@@H]2CN[C@@]3(C(=O)NCCO)[C@@H](C2)CN(CC2CCCCC2)[C@@H]13` (relative stereo) [IB-646] gave an IC50 of 10 to 30 µM.
